Test results from patent US10597388B2, “Pyridazinone herbicides” (FMC CORPORATION, priority 2014, dated 2020).

What was measured:
Assay in all cases: Test C greenhouse herbicide test, pre- and postemergence
Format in all cases: in vivo
[1] = system: barnyardgrass (Echinochloa crus-galli)
Summary of the method: (§1)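 Each species was treated both before emergence, in a loam–sand soil mix, and after emergence, as 1- to 4-leaf seedlings in peat-based potting medium. Plants stayed in the greenhouse 13 to 15 d, then were scored from 0 (no effect) to 100 (complete control) relative to controls.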

[2] = system: blackgrass (Alopecurus myosuroides)
Summary of the method: as §1

[3] = system: crabgrass, large (large crabgrass, Digitaria sanguinalis)
Summary of the method: as §1

[4] = system: foxtail, giant (giant foxtail, Setaria faberii)
Summary of the method: as §1

[5] = system: galium (catchweed bedstraw, Galium aparine)
Summary of the method: as §1

[6] = system: johnsongrass (Sorghum halepense)
Summary of the method: as §1

[7] = system: lambsquarters (Chenopodium album)
Summary of the method: as §1

[8] = system: morningglory (Ipomoea coccinea)
Summary of the method: as §1

[9] = system: nutsedge, yellow (yellow nutsedge, Cyperus esculentus)
Summary of the method: as §1

[10] = system: oilseed rape (Brassica napus)
Summary of the method: as §1

[11] = system: pigweed (Amaranthus retroflexus)
Summary of the method: as §1

[12] = system: ragweed (common ragweed, Ambrosia elatior)
Summary of the method: as §1

soybean (Glycine max) = system: soybean (Glycine max)
Summary of the method: as §1

[13] = system: velvetleaf (Abutilon theophrasti)
Summary of the method: as §1

[14] = system: waterhemp (common waterhemp, Amaranthus rudis)
Summary of the method: as §1

[15] = system: wheat (winter wheat, Triticum aestivum)
Summary of the method: as §1

[16] = Postemergence, 31 g ai/ha, 0 to 100 scale (0 no effect, 100 complete control)
[17] = Postemergence, 125 g ai/ha, scale 0 to 100, 0 is no effect, 100 is complete control
[18] = Postemergence, 250 g ai/ha, scale 0 to 100, 0 no effect, 100 complete control, 13 to 15 d
[19] = Preemergence, 31 g ai/ha, scale 0 to 100, 0 is no effect, 100 is complete control
[20] = Preemergence, 62 g ai/ha, scale 0 to 100, 0 is no effect, 100 is complete control
[21] = Preemergence, 125 g ai/ha, scale 0 to 100, 0 is no effect, 100 is complete control
[22] = Preemergence, 250 g ai/ha, scale 0 to 100 (0 no effect, 100 complete control)
[23] = postemergence, 62 g ai/ha, scale 0 to 100, 0 no effect, 100 complete control

CCOC(=O)Oc1c(C)nn(C)c(=O)c1-c1c(C)sc2c(C)cc(C)cc12 [Compound 83]
85: Plant response rating, Barnyardgrass [1, 21] | Crabgrass, Large plant response rating [3, 22] | Plant response rating, Foxtail, Giant [4, 17] | Plant response rating, Foxtail, Giant [4, 19] | Foxtail, Giant plant response rating [4, 23] | Plant response rating, Lambsquarters [7, 17] | Plant response rating, Lambsquarters [7, 20] | Lambsquarters plant response rating [7, 23] | Plant response rating, Morningglory [8, 19] | Plant response rating, Nutsedge, Yellow [9, 17] | Plant response rating, Nutsedge, Yellow [9, 19] | Plant response rating, Nutsedge, Yellow [9, 21] | Pigweed plant response rating [11, 23] | Plant response rating, Ragweed [12, 18] | Plant response rating, Ragweed [12, 19] | Ragweed plant response rating [12, 23] | Plant response rating, Velvetleaf [13, 21] | Waterhemp plant response rating [14, 23]
30: Plant response rating, Barnyardgrass [1, 17] | Plant response rating, Soybean (soybean (Glycine max); [19])
95: Plant response rating, Galium [5, 21] | Galium plant response rating [5, 22] | Plant response rating, Lambsquarters [7, 21] | Plant response rating, Morningglory [8, 21] | Nutsedge, Yellow plant response rating [9, 22] | Plant response rating, Ragweed [12, 21] | Ragweed plant response rating [12, 22]
90: Barnyardgrass plant response rating [1, 22] | Plant response rating, Blackgrass [2, 17] | Plant response rating, Blackgrass [2, 18] | Blackgrass plant response rating [2, 22] | Plant response rating, Foxtail, Giant [4, 18] | Plant response rating, Galium [5, 19] | Plant response rating, Galium [5, 20] | Galium plant response rating [5, 23] | Plant response rating, Morningglory [8, 20] | Morningglory plant response rating [8, 23] | Plant response rating, Nutsedge, Yellow [9, 18] | Plant response rating, Nutsedge, Yellow [9, 20] | Plant response rating, Pigweed [11, 17] | Plant response rating, Pigweed [11, 18] | Plant response rating, Ragweed [12, 17] | Plant response rating, Velvetleaf [13, 17] | Plant response rating, Velvetleaf [13, 18] | Velvetleaf plant response rating [13, 22] | Velvetleaf plant response rating [13, 23] | Plant response rating, Waterhemp [14, 20]
60: Plant response rating, Johnsongrass [6, 21] | Plant response rating, Waterhemp [14, 17] | Plant response rating, Waterhemp [14, 19]
40: Blackgrass plant response rating [2, 16] | Plant response rating, Crabgrass, Large [3, 17]
75: Plant response rating, Crabgrass, Large [3, 19] | Plant response rating, Johnsongrass [6, 20]
35: Plant response rating, Velvetleaf [13, 19]
50: Plant response rating, Barnyardgrass [1, 19] | Plant response rating, Oilseed Rape [10, 21] | Oilseed Rape plant response rating [10, 22]
80: Plant response rating, Blackgrass [2, 20] | Plant response rating, Blackgrass [2, 21] | Blackgrass plant response rating [2, 23] | Plant response rating, Lambsquarters [7, 19] | Nutsedge, Yellow plant response rating [9, 23] | Plant response rating, Waterhemp [14, 18]
55: Plant response rating, Crabgrass, Large [3, 18]
100: Plant response rating, Foxtail, Giant [4, 20] | Plant response rating, Foxtail, Giant [4, 21] | Foxtail, Giant plant response rating [4, 22] | Plant response rating, Galium [5, 17] | Plant response rating, Galium [5, 18] | Lambsquarters plant response rating [7, 22] | Plant response rating, Morningglory [8, 17] | Plant response rating, Pigweed [11, 19] | Plant response rating, Pigweed [11, 20] | Plant response rating, Pigweed [11, 21] | Pigweed plant response rating [11, 22] | Plant response rating, Ragweed [12, 20] | Plant response rating, Waterhemp [14, 21] | Waterhemp plant response rating [14, 22]
5: Plant response rating, Johnsongrass [6, 17] | Johnsongrass plant response rating [6, 23]
25: Barnyardgrass plant response rating [1, 16] | Barnyardgrass plant response rating [1, 23] | Crabgrass, Large plant response rating [3, 23]
45: Plant response rating, Barnyardgrass [1, 18] | Plant response rating, Oilseed Rape [10, 17]
98: Plant response rating, Lambsquarters [7, 18] | Plant response rating, Morningglory [8, 18] | Morningglory plant response rating [8, 22]
0: Plant response rating, Oilseed Rape [10, 19] | Plant response rating, Oilseed Rape [10, 20] | Oilseed Rape plant response rating [10, 23] | Plant response rating, Soybean (soybean (Glycine max); [17]) | Plant response rating, Soybean (soybean (Glycine max); [20]) | Plant response rating, Soybean (soybean (Glycine max); [21]) | Soybean plant response rating (soybean (Glycine max); [22]) | Soybean plant response rating (soybean (Glycine max); [23]) | Plant response rating, Wheat [15, 17] | Plant response rating, Wheat [15, 18] | Plant response rating, Wheat [15, 19] | Plant response rating, Wheat [15, 20] | Plant response rating, Wheat [15, 21] | Wheat plant response rating [15, 22] | Wheat plant response rating [15, 23]
65: Plant response rating, Crabgrass, Large [3, 20] | Plant response rating, Johnsongrass [6, 19]
10: Plant response rating, Johnsongrass [6, 18] | Plant response rating, Soybean (soybean (Glycine max); [18])
70: Plant response rating, Barnyardgrass [1, 20] | Plant response rating, Blackgrass [2, 19] | Plant response rating, Crabgrass, Large [3, 21] | Johnsongrass plant response rating [6, 22] | Plant response rating, Oilseed Rape [10, 18] | Plant response rating, Velvetleaf [13, 20]
